Results on two compounds are retold here after patent publication US20210267981A1, “COMPOUNDS FOR THE TREATMENT OF HIV INFECTION AND OTHER DISEASES CAUSED BY RNA VIRUSES” (UNIVERSIDAD CATOLICA DE VALENCIA "SAN VICENTE MARTIR", priority 2018, published 2021).

Data set [1] has as its system subdomain IIB of the RRE (IIBh-19ap RNA). Kind of data set: Fluorescence intensity binding to IIBh RNA, with or without competing RNAtCys or LTRd DNA. Details: species or system HIV-1. The following applies: for specificity of the interaction with IIB: 100-fold molar excess of RNAtCys or LTRd; for specificity IIB/DNA: Kd(IIBh)/Kd(IIBh + LTRd) quotient; for specificity IIB/RNA: Kd(IIBh)/Kd(IIBh + tRNA) quotient. The procedure: Depending on the absorption spectra of the compounds, these experiments measured association with IIBh-19ap or IIBh-23fl RNA sequences labeled with 2-aminopurine and fluorescein in residues A19 and U23 of the IIB loop, respectively (Prado et al., Biochem Pharmacol 107 (2016) 14-28), and were carried out in a SPECTRA GEMINI XPS plate reader (Molecular Devices, Sunnyvale, USA) or a Victor X5 plate reader (Perkin Elmer). The IIB RNA concentration in these assays was 100 nM, and the specificity of the interactions with respect to RNA and DNA was evaluated by duplicating the experiments in the presence of a 100-fold molar excess (10 μM) of RNAtCys or LTRd DNA duplex. All the fluorescence intensity experiments were performed at least three times for each compound.
The specificity of the interaction was evaluated by duplicating the experiments in the presence of a 100-fold molar excess of RNAtCys. Likewise, specificity with respect to a double-stranded DNA was evaluated by further performing the experiments with a 100-fold molar excess of a DNA duplex with 26 base pairs (identified as LTRd) containing NF-κB and Sp-1 transcription factor-binding sites (Prado et al., Biochem Pharmacol 107 (2016) 14-28). These two factors bind to the LTR promoter of HIV-1 DNA and are essential for virus replication (Jones et al., AnnuRevBiochem 63 (1994) 717-43).

Data set [2] is described as follows: Cell toxicity, CellTiter-Glo assay. The class given is cell-based. The following applies: human. From the text:
(§1) Anti-HIV-1 Activity and Cell Toxicity.
(§2) The methodology used for performing and analyzing these experiments has been described previously (Prado et al., Biochem Pharmacol 107 (2016) 14-28; Gonzalez-Bulnes et al., Angewandte Chemie-International Edition 52(50) (2013) 13405-13409). Briefly, infectious supernatants were obtained from 293T cells transfected with the pNL4.3-Ren plasmid. MT-2 cells were infected with these supernatants in the presence of the compounds, and the anti-HIV activity was quantified 48 h after infection by determining luciferase activity in the cell lysates. Cell viability was evaluated in cells treated with the same compound concentrations using the CellTiter-Glo assay (Promega). The antiviral activity and cell toxicity results represent the average of at least three independent experiments.

Data set [3] relates to MT-2 cells. Kind of data set: Cell toxicity, CellTiter-Glo assay. The data set is classed as cell-based. The following applies: CC50 versus antiviral concentration of the infection experiments.
Source text: as §1, §2

For data set [4], the system named is HIV-1 LTR promoter (LTR-Luc). Nature of the data set: Cell transfection assay, LTR-Luc plasmid in MT-2 cells. The data set is classed as cell-based. The following applies: for EC50: read-out: EC50 of transfection, LTR; for inhibition of LTR-dependent expression: compared with HIV-1 infection and transfection assays. The procedure:
Cell Transfection Assays.
MT-2 cells were transfected with plasmids containing a luciferase reporter gene the expression of which was under the control of the complete HIV-1 (NL4.3-luc) or HIV-1 LTR promoter (LTR-Luc). After transfection, the cells were treated with different compound concentrations, and the luciferase activity in the cell lysates was quantified 48 h later (Prado et al., Biochem Pharmacol 107 (2016) 14-28; Gonzalez-Bulnes et al., Angewandte Chemie-International Edition 52(50) (2013) 13405-13409).
The antiviral mechanism of compounds 1a and 2a was examined with additional cellular assays.

The subject of data set [5] is HIV-1. Nature of the data set: Anti-HIV-1 activity, cell infection assay in MT-2 cells (pNL4.3-Ren supernatants). The class given is cell-based. The procedure:
Plasmids, Virus, and Cells for Ex Vivo Assays.
Vectors pNL4.3-Luc and pNL4.3-Ren were generated by cloning luciferase and Renilla genes, respectively, in the nef site of HIV-1 proviral plasmid pNL4.3 (Adachi et al., J Virol 59(2) (1986) 284-91), as described previously in the state of the art (Garcia-Perez et al., J Med Virol 79(2) (2007) 127-37). MT-2 cells (Harada et al., Science 229(4713) (1985) 563-6) and 293T cells (American Type Culture Collection, Rockville, USA) were cultured as described previously (Prado et al., Biochem Pharmacol 107 (2016) 14-28).
as §1, §2

[6] abbreviates: IIBh-19ap, 100-fold molar excess of LTRd DNA duplex, read-out: Kd(IIBh + LTRd).
Setting [7] is: IIBh-19ap, 100-fold molar excess of RNAtCys, read-out: Kd(IIBh + tRNA).
[8] abbreviates: Human immunodeficiency virus 1, MT2, 48 h, read-out: EC50 of infection, HIV.
The mark [9] stands for this setting: Human immunodeficiency virus 1, MT2, read-out: EC50 cell infection assay.

Read-outs that look alike come from different tables or passages of the source.

For the compound `CN(C)CCOc1cc2c(c3ccccc13)-c1ccccc1C2=O` [Compound 1a], the “specificity of the interaction with IIB” value in data set [1] is “moderate specificity”. In addition, the Kd in data set [1] (setting [6]) was 2.8 µM; in data set [1] (setting [7]), 2.4 µM; in data set [1] (fluorescence intensity, read-out: Kd for subdomain IIB of the RRE), 1.4 µM. For the same compound, the “specificity IIB/DNA” value in data set [1] is 0.50. Besides, in data set [1], the “specificity IIB/RNA” value stood at 0.58. Moreover, in data set [2] (MT-2 cells, CellTiter-Glo, read-out: CC50), the CC50 came to 28.1 µM. In addition, the “CC50 values fold greater than the antiviral concentrations” value in data set [3] was found to be 34 fold. The concentration giving a half-maximal response (EC50) in data set [4] (Human immunodeficiency virus 1, MT2, 48 h) was 12.5 to 25 µM; in data set [5] (setting [8]), 0.83 µM; in data set [5] (setting [9]), 0.83 µM. In addition, the “inhibition of LTR-dependent expression” value in data set [4] is “weaker inhibition of LTR-dependent expression in relation to the activity detected in the complete HIV-1 transfection assay”.
Turning to `Fc1nc(N2CCNCC2)c(F)c(Sc2ccc(Cl)cc2)c1F` [Compound 2a], in data set [1], the “specificity of the interaction with IIB” value is on record as “specific”. The Kd in data set [1] (setting [6]) amounted to 9.2 µM; in data set [1] (setting [7]), 9 µM; in data set [1] (IIBh-19ap, no competitor, read-out: Kd(IIBh)), 10.8 µM. In addition, the “specificity IIB/DNA” value in data set [1] is reported as 1.17. The “specificity IIB/RNA” value in data set [1] turned out to be 1.20. In data set [2], this compound displayed a CC50 of 43.9 µM. The “CC50 values fold greater than the antiviral concentrations” value in data set [3] is on record as 22 fold. Further, the EC50 in data set [4] (Human immunodeficiency virus 1, MT2, MT-2 cells, LTR-Luc, 48 h) was determined as 4.4 µM; in data set [5] (setting [8]), 2 µM; in data set [5] (setting [9]), 2 µM. Moreover, in data set [4], the “inhibition of LTR-dependent expression” value was “inhibited LTR-dependent expression with an EC50 value similar to those measured in the HIV-1 infection and transfection experiments”.
